From US20160090351A1, “INHIBITORS OF DEUBIQUITINATING PROTEASES” (BRANDEIS UNIVERSITY, priority 2013, published 2016)

Legend:
Bcr-Abl kinase = assay: Bcr-Abl levels in K562 cells by immunoblotting; assay type: cell-based, human; details: for levels of Bcr-Abl: 50 μM, 2 h
Description: K562 cells are from a myelogenous leukemia line that expresses Bcr-Abl kinase. A. K562 cells were treated with TU50 for 24 hours after which time the cells were treated with annexin V-FITC and propidium iodide. Cells were then analyzed by flow cytometry. Cells showing only annexin V-FITC were considered apoptotic whereas cells showing both annexin V-FITC and propidium iodide were considered necrotic. N=2. All points show a significant difference to the vehicle (DMSO) with p<0.05. […] All points show a significant difference to vehicle (DMSO) with p<0.02. C. Same as A, but the incubation period was 8 hours. N>2. All points show a significant difference to DMSO with p<0.02. D, K562 cells were treated with TU50 for 4 hours. Samples were analyzed by SDS-PAGE and immunoblotting with anti-Bcr-Abl antibody. E. Quantitation of blot in D. The signal for tubulin was used to normalize the Bcr-Abl signal. N=3.
FIG. 34 depicts data showing that diphenylcarbonates cause the accumulation of HMW-Ub and reduce the levels of Bcr-Abl in K562 cells. A. K562 cells were treated with diphenyl carbonates (50 μM) for 2 h and then assayed for the accumulation of K48-linked Ub. B. As in A, but Bcr-Abl was measured by immunoblotting with anti-Abl antibodies. C. K562 cells were treated with C17 (50 μM) in the presence and absence of bortezomib (6 μM) for 4 hours and Bcr-Abl was measured by immunblotting with anti-Abl antibodies. D. Quantitation of blot in C. Significance: DMSO relative to C17 and bortezomib p=0.002; DMSO relative to C17, p=0.03. E. K562 cells were treated with C15 for 4 hours then analyzed for SMAD4 monoubiquitination by western blot. F. Quantitation of blots in A. (N=3). See also FIG. 40.
FIG. 40 depicts data showing that diphenyl carbonates induce the degradation of Bcr-Abl kinase. A. K562 cells were treated with C17 for 24 h (1 dose) then analyzed for Bcr-Abl expression by western blot with anti-Abl antibody. B. Quantitation of blots in A normalized to actin. C. K562 cells were treated with C17 for 24 h then the amount of cells in G1 and apoptosis were recorded (N=3). D. K562 were treated with C15 for 4 h then analyzed for Bcr-Abl expression using western blot. E. Quantitation of Bcr-Abl from D normalized to tubulin (N=4). F. Same K562 lysates were separately analyzed for K63-linked ubiquitin. G. Quantitation of blots in F (N=4). Differences between all bars is significant p<0.01). H. K562 cells were treated with C15 for 24 h after which time cells were fixed in ethanol, treated with propodium iodide/RNAse then analyzed by FACS. Viability was calculated using forward and side scatter. I. Same experiment as H but red fluorescence was measured to determine DNA content
Transfected cells were harvested 1.5 days post transfection. […] Typically clarified lysate was analyzed.

[1] = system: USP9x, USP19, USP7/8, USP28/15; assay: HA-Ub-VS activity profiling in cell lysates, USPs; assay type: biochemical, human; details: for HA-Ub-VS labeling of USPs: HEK 293T lysates
Description: HA-ubiquitin vinylsulfone (HA-Ub-VS) irreversibly labels DUBs by modifying the catalytic cysteine residue Inhibition of the DUB prevents HA-Ub-VS labeling and the band is. […] The interaction with UCHL1/3 is reversible.
Lysate labeling assay on untransfected cells (1.5 mg/mL) was run with the stated concentration of inhibitor (or 1% DMSO control) for between 19-60 mins. After this time HA-Ub-VS (1.5-0.7 μM) was added and incubated for 19 mins. After this time reaction mixture (9 μL) was removed and quenched in 2× (final concentration) reducing loading buffer. For recovery experiments, a lysate of 6 mg/mL was treated with saturating compound C14 (250 μM) and incubated for 40 mins. Afterward, the lysate was diluted to 0.6 mg/mL (final concentration of inhibitor 25 μM) in lysis buffer (final volume 100 μL), then HA-Ub-VS was added. Aliquots (15 μL) were removed at the stated time (5-119 mins) and immediately quenched in 2× (final concentration) reducing loading buffer. For all HA-Ub-VS experiments samples in loading buffer were heated only to 37° C. prior to loading on a gel. This assay is highly susceptible to concentration of lysate and HA-Ub-VS. Cell experiments were carried out as above with some modifications. For Cos-1 and MCF-7 cells, after trypsinization, media with compound was added to give a final concentration of compound equal to that used in the assay. Cell pellets were lysed on an ice/salt bath with a temperature of −5° C. and lysate was centrifuged for only 5 mins.
HA-Ub-VS is an irreversible inhibitor of DUBs that is widely used in activity profiling. If the DUB inhibitors react to form a thiocarbonylated enzyme as proposed (FIG. 29B), then HA-Ub-VS labeling will be blocked. Treatment of HEK 293T lysates with HA-Ub-VS produced the characteristic pattern of protein bands at 250, 150-100, 45, 38 and 36 kDa, generally ascribed to USP9x (292 kDa), USP19 (146 kDa), USP7/8 (128 and 127 kDa, respectively), USP28/15 (122 and 112 kDa, respectively), UCH-L5 (38 kDa), UCH-L3 (26 kDa) and UCH-L1 (25 kDa) as depicted in FIG. 31.
The effect of diphenylcarbonates on HA-Ub-VS labeling was assessed to investigate the selectivity of DUB inhibition. Lysates were preincubated with diphenyl carbonates (75 μM), then treated with HA-Ub-VS (FIG. 31A). […] These C17 and C22-sensitive DUBs are most likely USP9x, USP19, USP7/8 and UCHL5, based on molecular weight (FIGS. 31B and 38). The identity of USP7 was confirmed by immunoblotting (FIG. 38F). […] Similar behavior was observed on Cos-1 cell lysates (FIG. 38B).

[2] = 75 μM, 30 minutes preincubation

SMILES	levels of Bcr-Abl (Bcr-Abl kinase)	HA-Ub-VS labeling of USPs [1, 2]	HA-Ub-VS labeling, dose response ([1]; at 12 μM)	HA-Ub-VS labeling of USPs ([1]; preincubation with G5)	Bcr-Abl, dose response (Bcr-Abl kinase; C15 4 h)
NCc1ccc(OC(=O)Oc2cccc3ccccc23)cc1 [Compound C18]	caused a decrease in the levels of Bcr-Abl	decreased HA-Ub-VS labeling of several USPs	–	–	–
NCc1ccc(OC(=O)Oc2ccc(Cl)cc2)cc1 [Compound C14, 4-(aminomethyl)phenyl(4-chlorophenol)carbonate]	caused a decrease in the levels of Bcr-Abl	decreased HA-Ub-VS labeling of several USPs	–	–	–
NCc1ccc(OC(=O)Oc2ccc3ccccc3c2)cc1 [Compound C17]	caused a decrease in the levels of Bcr-Abl	decreased HA-Ub-VS labeling of several USPs	significantly inhibited the labeling of several high molecular weight proteins	–	–
O=C1/C(=C/c2ccc([N+](=O)[O-])cc2)CS(=O)(=O)C/C1=C\c1ccc([N+](=O)[O-])cc1 [Compound G5, reference compound]	–	–	–	decreased the labeling of all the USPs	–
NCc1ccc(OC(=O)Oc2ccc(Br)cc2)cc1 [Compound C15, 4-(aminomethyl)phenyl(4-bromophenyl)carbonate]	caused a decrease in the levels of Bcr-Abl	decreased HA-Ub-VS labeling of several USPs	–	–	dose dependent decrease in Bcr-Abl
